According to article PMC5217663, “Iridoids from Canthium subcordatum iso-butanol fraction with potent biological activities” (BMC Complementary and Alternative Medicine, 2017):
≈ marks a conversion by molar mass, not a printed value. Read-outs that look alike come from different tables or passages of the source.

What was measured:
Vibrio cholerae SG24 (1) = assay: Broth microdilution MIC/MBC; assay type: cell-based; details: for MBC / MIC: Vibrio cholerae; for MBC/MIC: Vibrio cholerae SG24 (1); for MIC: 24 h
Experimental: (§1) A total of six bacterial strains were tested for their susceptibility to compounds and these strains were taken from our laboratory collection (kindly provided by Dr. T. Ramamurthy, NICED, Kolkata). Among the clinical strains of Vibrio cholerae used in this study, strains NB2 and SG24(1) belonged to O1 and O139 serotypes, respectively. […] The bacterial strains were maintained on agar slant at 4 °C and subcultured on a fresh appropriate agar plates 24 h prior to any antibacterial test. The Mueller Hinton Agar (MHA) was used for the activation of bacteria. The Mueller Hinton Broth (MHB) and nutrient agar (Hi-Media) were used for the MIC and MBC determinations respectively.
(§2) MIC values were determined by a broth micro-dilution method as described earlier [14] with slight modifications. […] Then, 100 μl of each concentration was added in each well (96-well microplate) containing 95 μl of MHB and 5 μl of inoculums (at 1.5 × 10^6 CFU/ml) for final concentrations varying from 0.25–512 μg/ml. […] The plates were covered with sterile lids, then the contents of each well were mixed using a shaker and incubated at 35 °C for 24 h. […] MIC values were defined as the lowest sample concentrations that prevented this change in color indicating an inhibition of visible growth. Viable microorganisms reduced the yellow dye to a pink color. […] The lowest concentrations that yielded no growth after this subculturing were taken as the MBC values [15]. All the analyses were carried out in triplicate.

Vibrio cholerae CO6 = assay: Broth microdilution MIC/MBC; assay type: cell-based; details: for MBC / MBC/MIC: CO6; for MIC: CO6, 24 h
Experimental: as §1, §2

Vibrio cholerae NB2 = assay: Broth microdilution MIC/MBC; assay type: cell-based; details: for MBC / MBC/MIC: NB2
Experimental: as §1, §2

Vibrio cholerae PC2 = assay: Broth microdilution MIC/MBC; assay type: cell-based; details: for MBC / MBC/MIC: PC2
Experimental: as §1, §2

Shigella flexneri SDINT = assay: microbe, parasite or virus in culture; assay type: cell-based
Experimental: as §1, §2

[1] = system: Staphylococcus aureus ATCC 25923; assay: microbe, parasite or virus in culture; assay type: cell-based; details: for MBC / MIC: Staphylococcus aureus; for MBC: ATCC25923; for MIC: ATCC25923, 24 h
Experimental: as §1, §2

[2] = system: Vibrio cholerae, Shigella flexneri and Staphylococcus aureus; assay: Broth microdilution MIC/MBC, summary over all six tested strains; assay type: cell-based; details: for MIC: read-out: antibacterial activity class (pure compounds)
Experimental: as §1, §2

[3] = DPPH free radical scavenging assay; details: 30 min, room temperature, 517 nm
Experimental: The free radical scavenging activity of extracts as well as most of their isolated compounds was performed according to Brand-Williams et al. with slight modifications. Briefly, different concentrations (10 to 2000 μg/ml) of extracts/compounds and vitamin C (positive control) were thoroughly mixed with 3 ml of methanolic DPPH solution (20 mg/l) in test-tubes and the resulting solution was kept standing for 30 min at room temperature before the optical density (OD) was measured at 517 nm. The percentage radical scavenging activity was calculated from the following formula: % scavenging [DPPH] = [(A0–A1)/A0] × 100 [16]. Where A0 was the absorbance of the negative control (methanolic DPPH solution) and A1 was the absorbance in the presence of the samples. IC50 value was determined from the graph obtained using standard vitamin C by using the “y = mx + c” formula from the slope of the graph. All the analyses were carried out in triplicate.

[4] = Gallic acid equivalent antioxidant capacity (GAEAC) assay; details: ABTS/laccase, 420 nm, 240 s
Experimental: The GAEAC test was done as previously described [17] with slight modifications. In a quartz cuvette, to 950 μl acetate buffer (pH =5.0, 100 mM), the following were added: 20 μl laccase (1 mM stock solution), 20 μl test sample, 10 μl ABTS (2,2’-azinobis(3-ethylbenzothiazoline-6-sulfonic acid) (74 mM stock solution). The laccase were purified from Sclerotinia sclerotiorum according to the protocol described [18]. The sample concentrations in the assay mixture were 800, 400, 200, 100, 10 μg/ml for the extracts and 200, 100, 50, 25, 125.5 μg/ml for the isolated compounds. The content of the generated ABTS^●+ radical was measured at 420 nm after 240 s reaction time and was converted to gallic acid equivalents by the use of a calibration curve (Pearson’s correlation coefficient: r = 0.996) constructed with 0, 4, 10, 14, 28, 56, 84 μM gallic acid standards rather than Trolox. Experiments were done in triplicate.

| SMILES | MBC (Vibrio cholerae SG24 (1)) | MIC (Vibrio cholerae SG24 (1)) | MBC (Vibrio cholerae CO6) | MIC (Vibrio cholerae CO6) | MBC (Vibrio cholerae NB2; Vibrio cholerae) | MBC/MIC (Vibrio cholerae NB2; Vibrio cholerae) | MIC (Vibrio cholerae NB2; Vibrio cholerae, NB2, 24 h) | MBC (Vibrio cholerae PC2; Vibrio cholerae) | MBC/MIC (Vibrio cholerae PC2; Vibrio cholerae) | MIC (Vibrio cholerae PC2; Vibrio cholerae, PC2, 24 h) | MBC/MIC (Shigella flexneri SDINT) | MBC (Shigella flexneri SDINT; Shigella flexneri) | MIC (Shigella flexneri SDINT; Shigella flexneri, 24 h) | MBC/MIC [1] | MBC [1] | MIC [1] | MIC [2] | MBC/MIC (Vibrio cholerae CO6) | also measured |
| --- | --- | --- | --- | --- | --- | --- | --- | --- | --- | --- | --- | --- | --- | --- | --- | --- | --- | --- | --- |
| COC(=O)C1=CO[C@@H](O[C@@H]2O[C@H](CO)[C@@H](O)[C@H](O)[C@H]2O)[C@H]2[C@@H]1[C@H](O)C[C@]2(C)O [Compound 9, shanzhiside methyl ester] | 128 µg/mL (≈ 315 µM) | 128 µg/mL (≈ 315 µM) | > 256 µg/mL | 128 µg/mL (≈ 315 µM) | 128 µg/mL (≈ 315 µM) | 1 | 128 µg/mL (≈ 315 µM) | 256 µg/mL (≈ 630 µM) | 1 | 256 µg/mL (≈ 630 µM) | 2 | 256 µg/mL (≈ 630 µM) | 128 µg/mL (≈ 315 µM) | 2 | 256 µg/mL (≈ 630 µM) | 128 µg/mL (≈ 315 µM) | > 100 µg/mL | – | MBC/MIC (Vibrio cholerae SG24 (1)): 1 |
| COC(=O)C1=COC(OC2OC(CO)C(O)C(O)C2O)C2C(COC(=O)C3=COC(OC(C)=O)C4C(C)CCC34)=CCC12 (stereo not drawn) [Compound 5a, canthiumoside 5a] | > 256 µg/mL | 256 µg/mL (≈ 419 µM) | 256 µg/mL (≈ 419 µM) | 128 µg/mL (≈ 210 µM) | 128 µg/mL (≈ 210 µM) | 1 | 128 µg/mL (≈ 210 µM) | 256 µg/mL (≈ 419 µM) | 2 | 128 µg/mL (≈ 210 µM) | 1 | 128 µg/mL (≈ 210 µM) | 128 µg/mL (≈ 210 µM) | 1 | 128 µg/mL (≈ 210 µM) | 128 µg/mL (≈ 210 µM) | > 100 µg/mL | 2 | – |
| COC(=O)C1=COC(OC2OC(CO)C(O)C(O)C2O)C2C(COC(=O)C3=COC(OC4OC(CO)C(O)C(O)C4O)C4C(COC(C)=O)=CCC34)=CCC12 (stereo not drawn) [Compound 3, canthiumoside 3] | – | > 256 µg/mL | 256 µg/mL (≈ 325 µM) | 128 µg/mL (≈ 163 µM) | 256 µg/mL (≈ 325 µM) | 1 | 256 µg/mL (≈ 325 µM) | > 256 µg/mL | – | 256 µg/mL (≈ 325 µM) | – | > 256 µg/mL | 256 µg/mL (≈ 325 µM) | – | > 256 µg/mL | 256 µg/mL (≈ 325 µM) | > 100 µg/mL | 2 | tested organisms inhibited [2]: 83.33% |
| COC(=O)C1=CO[C@@H](O)[C@H]2[C@@H]1[C@H](O)C[C@]2(C)O [compound 6] | 256 µg/mL (≈ 1050 µM) | 128 µg/mL (≈ 524 µM) | 256 µg/mL (≈ 1050 µM) | 256 µg/mL (≈ 1050 µM) | 256 µg/mL (≈ 1050 µM) | – | 256 µg/mL (≈ 1050 µM) | 256 µg/mL (≈ 1050 µM) | – | 128 µg/mL (≈ 524 µM) | – | 64 µg/mL (≈ 262 µM) | 32 µg/mL (≈ 131 µM) | – | 64 µg/mL (≈ 262 µM) | 32 µg/mL (≈ 131 µM) | > 100 µg/mL | – | – |
| COC(=O)C1=COC(OC2OC(CO)C(O)C(O)C2O)C2C(COC(=O)C3=COC(OC4OC(CO)C(O)C(O)C4O)C4C(CO)=CCC34)=CCC12 (stereo not drawn) [Compound 4, canthiumoside 4] | – | – | – | – | – | – | – | – | – | – | – | – | – | – | – | – | – | – | EC50 (concentration scavenging 50% of DPPH radical) [3]: 178.57 µg/mL; GAEAC (gallic acid equivalent antioxidant capacity) [4]: 22.63 µg/mL |
| O=C1O[C@H]([C@@H](O)CO)C(O)=C1O [vitamin C, reference compound] | – | – | – | – | – | – | – | – | – | – | – | – | – | – | – | – | – | – | EC50 (concentration scavenging 50% of DPPH radical) [3]: 1.74 µg/mL |
| COC(=O)C1=COC(OC2OC(CO)C(O)C(O)C2O)C2C1CCC2(C)O (stereo not drawn) [Compound 8, mussaenoside] | > 256 µg/mL | 256 µg/mL (≈ 656 µM) | 256 µg/mL (≈ 656 µM) | 256 µg/mL (≈ 656 µM) | > 256 µg/mL | – | 128 µg/mL (≈ 328 µM) | 256 µg/mL (≈ 656 µM) | 2 | 128 µg/mL (≈ 328 µM) | 2 | 256 µg/mL (≈ 656 µM) | 128 µg/mL (≈ 328 µM) | 2 | 128 µg/mL (≈ 328 µM) | 64 µg/mL (≈ 164 µM) | > 100 µg/mL | 1 | – |
| COC(=O)C1=CO[C@@H](O)[C@H]2[C@@H]1CC[C@]2(C)O [compound 7] | 64 µg/mL (≈ 280 µM) | 32 µg/mL (≈ 140 µM) | 128 µg/mL (≈ 561 µM) | 64 µg/mL (≈ 280 µM) | 32 µg/mL (≈ 140 µM) | – | 32 µg/mL (≈ 140 µM) | 32 µg/mL (≈ 140 µM) | – | 32 µg/mL (≈ 140 µM) | – | 16 µg/mL (≈ 70.1 µM) | 16 µg/mL (≈ 70.1 µM) | – | 8 µg/mL (≈ 35.1 µM) | 8 µg/mL (≈ 35.1 µM) | 10 to 100 µg/mL (≈ 43.8 to 438 µM) | – | – |
| COC(=O)C1=CO[C@@H](O)[C@H]2[C@@H]1CC[C@]2(C)O [Compound 7, linearin] | – | – | – | – | – | – | – | – | – | – | – | – | – | – | – | – | – | – | MIC (range over the tested bacteria) ([2]; range over all tested strains): 8 to 64 µg/mL |
| COC(=O)C1=COC(O)C2C(COC(=O)C3=COC(OC4OC(CO)C(O)C(O)C4O)C4C(COC(C)=O)=CCC34)=CCC12 (stereo not drawn) [Compound 2, canthiumoside 2] | > 256 µg/mL | 256 µg/mL (≈ 410 µM) | 256 µg/mL (≈ 410 µM) | 128 µg/mL (≈ 205 µM) | 128 µg/mL (≈ 205 µM) | 1 | 128 µg/mL (≈ 205 µM) | 256 µg/mL (≈ 410 µM) | 1 | 256 µg/mL (≈ 410 µM) | 2 | 256 µg/mL (≈ 410 µM) | 128 µg/mL (≈ 205 µM) | 1 | 64 µg/mL (≈ 102 µM) | 64 µg/mL (≈ 102 µM) | > 100 µg/mL | 2 | – |
| CC1(C)S[C@@H]2[C@H](NC(=O)[C@H](N)c3ccccc3)C(=O)N2[C@H]1C(=O)O [Ampicillin, reference compound] | 16 µg/mL (≈ 45.8 µM) | 16 µg/mL (≈ 45.8 µM) | 16 µg/mL (≈ 45.8 µM) | 16 µg/mL (≈ 45.8 µM) | > 512 µg/mL | – | > 512 µg/mL | > 512 µg/mL | – | > 512 µg/mL | – | > 512 µg/mL | > 512 µg/mL | 1 | 8 µg/mL (≈ 22.9 µM) | 8 µg/mL (≈ 22.9 µM) | – | 1 | MBC/MIC (Vibrio cholerae SG24 (1)): 1; MIC (Vibrio cholerae NB2; Vibrio cholerae NB2, 35 °C, 24 h): not active; MIC (Vibrio cholerae PC2; Vibrio cholerae PC2, 35 °C, 24 h): not active; MIC (Shigella flexneri SDINT): not active |
| COC(=O)C1=CO[C@@H](O)[C@@H]2C(COC(=O)C3=CO[C@@H](O)[C@@H]4C(COC(C)=O)=CC[C@H]34)=CC[C@H]12 [Compound 1, canthiumoside 1] | 128 µg/mL (≈ 277 µM) | 64 µg/mL (≈ 138 µM) | 64 µg/mL (≈ 138 µM) | 64 µg/mL (≈ 138 µM) | 64 µg/mL (≈ 138 µM) | 1 | 64 µg/mL (≈ 138 µM) | 64 µg/mL (≈ 138 µM) | 1 | 64 µg/mL (≈ 138 µM) | 2 | 64 µg/mL (≈ 138 µM) | 32 µg/mL (≈ 69.2 µM) | 1 | 32 µg/mL (≈ 69.2 µM) | 32 µg/mL (≈ 69.2 µM) | 10 to 100 µg/mL (≈ 21.6 to 216 µM) | 1 | MBC/MIC (Vibrio cholerae SG24 (1)): 2; EC50 (concentration scavenging 50% of DPPH radical) [3]: 2.03 µg/mL; GAEAC (gallic acid equivalent antioxidant capacity) [4]: 79.82 µg/mL; GAEAC (gallic acid equivalent antioxidant capacity) ([4]; listed as Canthiumoside 1): 79.82 to 92.35 µg/mL |
